Results from paper PMC7691360, “Synthesis of novel cytotoxic tetracyclic acridone derivatives and study of their molecular docking, ADMET, QSAR, bioactivity and protein binding properties” (Scientific Reports, 2020).

How the values were obtained:
[1] = tested on: HT29 cells; test: MTT cytotoxicity assay against HT29; format: cell-based; details: Homo sapiens, 48 h, read-out: Percentage of inhibition against treated concentrations; for activity at 1 µM: HT-29, HT29, 1 µM; for activity at 5 µM: HT-29, HT29, 5 µM; for activity at 10 µM: HT-29, HT29, 10 µM; for activity at 25 µM: HT-29, HT29, 25 µM; for activity at 50 µM: HT-29, HT29, 50 µM
Method: (§1) Anticancer activity of 7a–s has been evaluated by MTT [3-(4,5-dimethylthiazol-2-yl)-2,5-diphenyl-tetrazolium bromide] assay and the cell lines HT29 (ATCC: HTB-38), MDA-MB-231 (ATCC: HTB-26), HEK293T (ATCC: CRL-3216) were procured from American type cell culture collection (ATCC), Manassas, USA and other chemicals were procured from Sigma-Aldrich. Then absorbance (used as a measure of cell proliferation) was measured at 570 nm with a kinetic micro-plate reader (BioTek, Winooski, Vermont).
(§2) Having synthesized a series of the title compounds, all of them were screened for their in vitro anticancer profiles against a panel of human colorectal adenocarcinoma (HT29), human breast adenocarcinoma (MDA-MB-231) and mutated Human embryonic kidney 293 (HEK293T) cancer cell lines by using MTT colourmetric assay as per Johan van Meerloo protocol. The three cell lines were cultured in […] medium and supplemented with 10% FBS followed by 100 units/mL penicillin/ streptomycin and were cultured at 37 °C in 5% CO2. Cell proliferation of the growing cells was measured in terms of logarithmic standards. Analytically, all the cultured cells were plated onto 96 well plates at a starting density of 10^5 cells. Then all the cells were treated with title compounds 7a–s for a period of 48 h with different concentrations. After this incubation cell proliferation inhibition was determined by MTT assay and all the experiments were conducted in triplicates and readings were presented as mean ± SD and provided in Tables 1, 2 and 3.

[2] = tested on: MDA-MB-231 cells; test: MTT cytotoxicity assay against MDA-MB-231; format: cell-based; details: Homo sapiens, 48 h, read-out: Percentage of inhibition against treated concentrations; for activity at 1 µM: MDAMB231, 1 µM; for activity at 5 µM: MDAMB231, 5 µM; for activity at 10 µM: MDAMB231, 10 µM; for activity at 25 µM: MDAMB231, 25 µM; for activity at 50 µM: MDAMB231, 50 µM
Method: as §1, §2

[3] = tested on: HEK293T cells; test: MTT cytotoxicity assay against HEK293T; format: cell-based; details: Homo sapiens, HEK-293T, 48 h, read-out: Percentage of inhibition against treated concentrations
Method: as §1, §2

Compound | activity at 1 µM [1] | activity at 5 µM [1] | activity at 10 µM [1] | activity at 25 µM [1] | activity at 50 µM [1] | activity at 1 µM [2] | activity at 5 µM [2] | activity at 10 µM [2] | activity at 25 µM [2] | activity at 50 µM [2] | activity at 1 µM [3] | activity at 5 µM [3] | activity at 10 µM [3] | activity at 25 µM [3] | activity at 50 µM [3] | melting point
Cc1cccc(C(=O)N2CCn3c4ccccc4c(=O)c4cccc2c43)n1 [Compound 7e, 3-(6-Methylpicolinoyl)-2,3-dihydropyrazino[3,2,1-de]acridin-7(1H)-one] | 84.9 ± 0.94% | 60.82 ± 0.33% | 49.1 ± 0.85% | 27.6 ± 0.35% | 16.3 ± 0.55% | 82.18 ± 0.79% | 52.9 ± 0.75% | 42.1 ± 0.52% | 15.83 ± 0.14% | 11.3 ± 0.22% | 98.73 ± 0.97% | 97.08 ± 0.25% | 95.2 ± 0.76% | 91.72 ± 0.35% | 54 ± 0.77% | 246 to 248 °C
O=C(c1cccc(C(F)(F)F)n1)N1CCn2c3ccccc3c(=O)c3cccc1c32 [Compound 7i, 3-(6-(Trifluoromethyl)picolinoyl)-2,3-dihydropyrazino[3,2,1-de]acridin-7(1H)-one] | 83.56 ± 0.57% | 59.1 ± 0.75% | 46.5 ± 0.52% | 25.8 ± 0.28% | 12.2 ± 0.27% | 84.78 ± 0.64% | 55.71 ± 0.32% | 45.6 ± 0.94% | 28.6 ± 0.3% | 16.8 ± 0.37% | 98.39 ± 0.19% | 95.7 ± 0.97% | 93.38 ± 0.64% | 88.56 ± 0.24% | 52.19 ± 0.26% | –
O=C(c1cccc(F)c1)N1CCn2c3ccccc3c(=O)c3cccc1c32 [Compound 7q, 3-(3-Fluorobenzoyl)-2,3-dihydro-1H,7H-pyrazino[3,2,1-de]acridin-7-one] | 94.96 ± 0.53% | 78.87 ± 0.43% | 70.57 ± 0.53% | 58.23 ± 0.29% | 25.3 ± 0.44% | 93.46 ± 0.54% | 72.41 ± 0.45% | 66.2 ± 0.69% | 57.89 ± 0.12% | 34.1 ± 0.37% | 98.51 ± 0.12% | 96.21 ± 0.72% | 94.69 ± 0.34% | 91.34 ± 0.41% | 53.8 ± 0.58% | –
O=C(c1ccsc1)N1CCn2c3ccccc3c(=O)c3cccc1c32 [Compound 7h, 3-(Thiophene-3-carbonyl)-2,3-dihydropyrazino[3,2,1-de]acridin-7(1H)-one] | 87.92 ± 0.24% | 62.4 ± 0.68% | 50.2 ± 0.65% | 29.5 ± 0.51% | 17.8 ± 0.65% | 82.62 ± 0.41% | 53.8 ± 0.75% | 42.4 ± 0.49% | 21.4 ± 0.29% | 12.6 ± 0.72% | 92.81 ± 0.18% | 89.61 ± 0.31% | 86.2 ± 0.66% | 78.45 ± 0.18% | 46.23 ± 0.43% | –
O=C(c1cccc(C(F)(F)F)c1)N1CCn2c3ccccc3c(=O)c3cccc1c32 [Compound 7n, 3-(3-(Trifluoromethyl)benzoyl)-2,3-dihydro-1H,7H-pyrazino[3,2,1-de]acridin-7-one] | 95.32 ± 0.73% | 79.12 ± 0.33% | 72.72 ± 0.33% | 59.26 ± 0.11% | 26.9 ± 0.84% | 90.57 ± 0.59% | 69.83 ± 0.31% | 61.97 ± 0.44% | 54.23 ± 0.32% | 31.96 ± 0.16% | 96.84 ± 0.75% | 94.67 ± 0.59% | 92.02 ± 0.39% | 84.32 ± 0.28% | 49.69 ± 0.21% | –
O=C(CC1CC1)N1CCn2c3ccccc3c(=O)c3cccc1c32 [Compound 7d, 3-(2-Cyclopropylacetyl)-2,3-dihydropyrazino[3,2,1-de]acridin-7(1H)-one] | 88.71 ± 0.78% | 63.1 ± 0.71% | 50.91 ± 0.38% | 29.68 ± 0.23% | 18 ± 0.39% | 85.23 ± 0.73% | 55.73 ± 0.21% | 45.6 ± 0.98% | 28.6 ± 0.43% | 16.83 ± 0.16% | 99.76 ± 0.56% | 98.09 ± 0.42% | 97.1 ± 0.88% | 96.35 ± 0.19% | 56.8 ± 0.69% | –
O=C(c1ccccc1C(F)(F)F)N1CCn2c3ccccc3c(=O)c3cccc1c32 [Compound 7m, 3-(2-(Trifluoromethyl)benzoyl)-2,3-dihydro-1H,7H-pyrazino[3,2,1-de]acridin-7-one] | 92.71 ± 0.01% | 76.71 ± 0.17% | 68.5 ± 0.72% | 57.33 ± 0.32% | 23.8 ± 0.33% | 92.11 ± 0.88% | 71.15 ± 0.19% | 65 ± 0.46% | 56.9 ± 0.59% | 33.5 ± 0.57% | 97.18 ± 0.28% | 94.73 ± 0.82% | 92.36 ± 0.46% | 86.88 ± 0.3% | 51.2 ± 0.07% | –
COc1cccc2c1C(=O)c1c(O)c3c(c(O)c1C2=O)C[C@@](O)(C(=O)CO)C[C@@H]3O[C@H]1C[C@H](N)[C@H](O)[C@H](C)O1 [Doxorubicin, reference compound] | 97.09 ± 0.79% | 90.76 ± 0.83% | 82.92 ± 0.54% | 72.6 ± 0.83% | 42.8 ± 0.86% | 93.65 ± 0.42% | 87.54 ± 0.67% | 79.98 ± 0.67% | 69.98 ± 0.47% | 41.2 ± 0.79% | 96.1 ± 0.83% | 95.66 ± 0.42% | 92.44 ± 0.56% | 85.27 ± 0.78% | 50.25 ± 0.14% | –
O=c1c2ccccc2n2c3c(cccc13)N(c1cccnc1)CC2 [Compound 7s, 3-(Pyridin-3-yl)-2,3-dihydropyrazino[3,2,1-de]acridin-7(1H)-one] | 84.78 ± 0.12% | 60.38 ± 0.24% | 48.4 ± 0.57% | 27.5 ± 0.35% | 15.2 ± 0.61% | 88.63 ± 0.67% | 59.87 ± 0.26% | 49.22 ± 0.24% | 43.07 ± 0.28% | 25.4 ± 0.46% | 93.26 ± 0.88% | 91.78 ± 0.53% | 88.09 ± 0.54% | 80.57 ± 0.26% | 47.8 ± 0.79% | –
